The test system of one assay is goblet cells. As to the kind of experiment: Test for confirming synergetic expectorant effect: number of goblet cells in the air tube after intratracheal LPS. It counts as in vivo, Fischer (F334) rats. To be noted: for Number of goblet cells: counted three days after LPS; for expectorant effect (number of goblet cells), result in words: summary of Table 1. An excerpt: Improvement of the expectorant effect by using fudosteine and an antipyretic/analgesic in combination was confirmed by the method described below. Seven 12-week-old male Fischer ([…]) rats for one group were used as test animals. The rats were anesthetized with pentobarbital and their skin was disinfected using the Isodine solution for surgery. The trachea of the rats was exposed by midline incision. The injection needle ([…], Hamilton) attached to a Hamilton injection syringe was inserted from the pharynx to inject lipopolysaccharide (LPS, 10 μg/500 μl) into the air tube. The samples of which the components and dose are shown in Table 1 were dissolved or suspended in a 0.5% CMC-Na solution. The solution or suspension was orally administered to the rats three times in total, specifically, 30 minutes before administering LPS, 24 hours after administering LPS, and 48 hours after administering LPS. Three days after administering LPS, the rats were bled to death by cutting the abdominal aorta under pentobarbital anesthesia. A part of the air tube and bronchial tube was removed and fixed with a 10% neutral buffered formalin solution. The fixed bronchial tube was embedded in paraffin according to a conventional method. The air tube was cut into slices in the cross-section. The slices were stained with alcian blue/PAS (AB/PAS). The AB/PAS stained samples of each air tube were microscopically examined to measure the number of goblet cells according to the reported procedure (Enviromn. Tixicol. Pharmacol., vol. 5, p. 173, 1998).

A further assay relates to Wistar rats. As to the kind of experiment: Test for confirming synergetic antiinflammatory effect: carrageenan footpad edema. It counts as in vivo. To be noted: for Edema ratio (%): four hours after carrageenan; for antiinflammatory effect, result in words: summary of Table 2. As to the method: Improvement on the antiinflammatory effect by using fudosteine and an antipyretic/analgesic in combination was confirmed by the method described below. Five five-week-old male Wistar rats for one group were used as test animals. The samples of which the components and dose are shown in Table 2 were dissolved or suspended in a 0.5% CMC-Na solution. The solution or suspension was orally administered to the rats once a day in five consecutive days. Two hours after the administration on the last administration day, 0.1 ml of an inflammatory (carrageenan) was hypodermically injected into the right hind footpad of the rats. The limb volume of the rats was measured four hours after injecting the inflammatory. The edema ratio was calculated based on the limb volume before injecting the inflammatory. The rats were coated with a licking prevention hood, followed by measuring the right hind limb volume using a plethysmometer (manufactured by Ugo Basile).

Where [1] appears, read: 100 mg/kg orally once a day for five days.

Structures are written as SMILES.

Regarding `CC(C)Cc1ccc(C(C)C(=O)O)cc1` (centres unmarked) [Ibuprofen, ibuprofen], the “Number of goblet cells” value stood at 124.9 ± 1.8 with goblet cells (50 mg/kg orally, three times) and 124.3 ± 2.0 in the assay on goblet cells (100 mg/kg orally, three times). The “expectorant effect (number of goblet cells), result in words” value (shortened to “expectorant effect”) in the assay on goblet cells is reported as “did not exhibit an expectorant effect”. The “Edema ratio (%)” value is reported as 70.6 ± 0.89 % in the assay on Wistar rats (50 mg/kg orally once a day for five days) and 60.6 ± 0.79 ^a) % in the assay with Wistar rats (setting [1]). The “antiinflammatory effect, result in words” value in the assay on Wistar rats is listed as “dose-dependent antiinflammatory effect”.
Regarding `CC(=O)Nc1ccc(O)cc1` [Acetaminophen, acetaminophen], the “Number of goblet cells” value in the assay on goblet cells (100 mg/kg orally, three times) amounted to 125.7 ± 2.4; in the assay with goblet cells (200 mg/kg orally, three times), 122.9 ± 1.7. Further, the “expectorant effect” value in the assay with goblet cells was “did not exhibit an expectorant effect”. For the same molecule, the “Edema ratio (%)” value with Wistar rats (setting [1]) is recorded as 70.6 ± 0.68 %; in the assay on Wistar rats (200 mg/kg orally once a day for five days) it was 60.6 ± 0.88 ^b) %. In the assay on Wistar rats, the “antiinflammatory effect, result in words” value is recorded as “dose-dependent antiinflammatory effect”.
On to `N[C@@H](CSCCCO)C(=O)O` [Fudosteine, S-(3-hydroxypropyl)-L-cysteine], for which the “Number of goblet cells” value in the assay with goblet cells (30 mg/kg orally, three times (30 min before, 24 h and 48 h after LPS)) came to 75.7 ± 1.3. In addition, the “expectorant effect” value in the assay with goblet cells was “exhibited an expectorant effect”.

These data come from patent publication US20040147606A1, “Medicinal compositions” (priority 2001, published 2004).
